Laboratory results published in ChEMBL document CHEMBL1201862, “PubChem BioAssay data set” (2004).
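In this assay, cells in 96-well plates receive the compound at five concentrations for 48 hours. Endpoints are linearly interpolated between the surrounding concentrations. GI50 marks 50% less growth.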 Activity calls are given as the source filed them. No stated cut-off is given here; in the data, active = GI50 up to about 1.1 µM and inactive = higher.

Columns and labels:
Experiment in all cases: NCI tumour cell line growth inhibition, 48 h
HT-29 = system: HT-29
SR = system: SR
UACC-62 = system: UACC-62
SNB-75 = system: SNB-75
MCF7 = system: MCF7
SF-295 = system: SF-295
MDA-N = system: MDA-N
Hs-578T = system: Hs-578T
K562 = system: K562
A549 = system: A549
MDA-MB-231 = system: MDA-MB-231
LOX IMVI = system: LOX IMVI
OVCAR-5 = system: OVCAR-5
UO-31 = system: UO-31
HCT-15 = system: HCT-15
SNB-19 = system: SNB-19
UACC-257 = system: UACC-257
HCT-116 = system: HCT-116
NCI/ADR-RES = system: NCI/ADR-RES
OVCAR-8 = system: OVCAR-8
HL-60 = system: HL-60
RPMI-8226 = system: RPMI-8226
NCI-H226 = system: NCI-H226
OVCAR-4 = system: OVCAR-4
EKVX = system: EKVX
TK-10 = system: TK-10
KM12 = system: KM12
CAKI-1 = system: CAKI-1
SW-620 = system: SW-620
SK-MEL-5 = system: SK-MEL-5
SK-OV-3 = system: SK-OV-3
OVCAR-3 = system: OVCAR-3
M14 = system: M14
DU-145 = system: DU-145
MDA-MB-435 = system: MDA-MB-435
NCI-H23 = system: NCI-H23
HOP-62 = system: HOP-62
U-251 = system: U-251
Malme-3M = system: Malme-3M
SK-MEL-28 = system: SK-MEL-28
NCI-H460 = system: NCI-H460
786-0 = system: 786-0
IGROV-1 = system: IGROV-1
PC-3 = system: PC-3
CCRF-CEM = system: CCRF-CEM
COLO 205 = system: COLO 205
HOP-92 = system: HOP-92
NCI-H522 = system: NCI-H522
MOLT-4 = system: MOLT-4
SF-268 = system: SF-268
SK-MEL-2 = system: SK-MEL-2
RXF 393 = system: RXF 393
ACHN = system: ACHN
HCC 2998 = system: HCC 2998
SF-539 = system: SF-539
BT-549 = system: BT-549
A498 = system: A498
T47D = system: T47D
SN12C = system: SN12C

Measured: GI50

CCOC(=O)Cn1c(=O)c2cc(C)cc3c(Cl)nc4c(OC)c(OC)cc1c4c32
inactive: HT-29 > 100 µM | SR 50 µM | UACC-62 > 100 µM | SNB-75 30.8 µM | MCF7 72.8 µM | SF-295 > 100 µM | MDA-N > 100 µM | Hs-578T 31.8 µM | K562 > 100 µM | A549 > 100 µM | MDA-MB-231 > 100 µM | LOX IMVI > 100 µM | OVCAR-5 > 100 µM | UO-31 > 100 µM | SNB-19 > 100 µM | UACC-257 > 100 µM | HCT-116 > 100 µM | NCI/ADR-RES > 100 µM | OVCAR-8 > 100 µM | HL-60 > 100 µM | RPMI-8226 36.5 µM | NCI-H226 > 100 µM | OVCAR-4 > 100 µM | EKVX > 100 µM | TK-10 > 100 µM | KM12 > 100 µM | CAKI-1 > 100 µM | SW-620 > 100 µM | SK-MEL-5 > 100 µM | SK-OV-3 > 100 µM | OVCAR-3 > 100 µM | M14 > 100 µM | DU-145 > 100 µM | MDA-MB-435 > 100 µM | NCI-H23 > 100 µM | HOP-62 > 100 µM | U-251 > 100 µM | Malme-3M 44.2 µM | SK-MEL-28 > 100 µM | NCI-H460 > 100 µM | 786-0 29.7 µM | IGROV-1 71.8 µM | PC-3 > 100 µM | CCRF-CEM > 100 µM | COLO 205 > 100 µM | HOP-92 41.5 µM | NCI-H522 > 100 µM | MOLT-4 > 100 µM | SF-268 35.6 µM | SK-MEL-2 > 100 µM | RXF 393 51.1 µM | ACHN > 100 µM | HCC 2998 > 100 µM | SF-539 > 100 µM | BT-549 56.6 µM
> 100 µM: HCT-15

Cc1cc(C)n2c(nc3ccccc32)c1C#N
> 100 µM: HCT-15
inactive: HT-29 > 100 µM | UACC-62 > 100 µM | MCF7 > 100 µM | SF-295 > 100 µM | MDA-N > 100 µM | K562 > 100 µM | A549 > 100 µM | MDA-MB-231 69.2 µM | LOX IMVI > 100 µM | OVCAR-5 > 100 µM | UO-31 > 100 µM | SNB-19 > 100 µM | UACC-257 > 100 µM | HCT-116 54.1 µM | A498 > 100 µM | NCI/ADR-RES > 100 µM | OVCAR-8 > 100 µM | HL-60 > 100 µM | NCI-H226 > 100 µM | OVCAR-4 10.8 µM | EKVX > 100 µM | TK-10 > 100 µM | T47D > 100 µM | CAKI-1 > 100 µM | SW-620 > 100 µM | SK-MEL-5 55.7 µM | SK-OV-3 > 100 µM | OVCAR-3 > 100 µM | M14 > 100 µM | DU-145 > 100 µM | MDA-MB-435 > 100 µM | NCI-H23 > 100 µM | U-251 > 100 µM | Malme-3M > 100 µM | SK-MEL-28 > 100 µM | NCI-H460 > 10 µM | 786-0 > 100 µM | IGROV-1 > 100 µM | SN12C > 100 µM | PC-3 > 100 µM | CCRF-CEM > 100 µM | COLO 205 > 100 µM | HOP-92 22.4 µM | MOLT-4 93.8 µM | SK-MEL-2 > 100 µM | RXF 393 > 100 µM | ACHN > 100 µM | HCC 2998 > 100 µM | SF-539 > 100 µM | BT-549 > 100 µM

CN1CC[C@@]2(c3cccc(O)c3)CC(=O)/C(=C/c3ccc(Cl)c(Cl)c3)[C@H]1C2
1.98 µM: HCT-15
active: SNB-75 1.06 µM | K562 0.433 µM
inactive: HT-29 1.42 µM | SR 1.14 µM | SF-295 2.03 µM | MDA-N 1.87 µM | Hs-578T 2.51 µM | A549 3.28 µM | LOX IMVI 1.48 µM | OVCAR-5 4.35 µM | UO-31 2.07 µM | SNB-19 3.26 µM | UACC-257 3.41 µM | A498 13.6 µM | NCI/ADR-RES 2.38 µM | OVCAR-8 3.05 µM | HL-60 1.52 µM | RPMI-8226 1.15 µM | OVCAR-4 4.59 µM | EKVX 8.79 µM | TK-10 14 µM | SW-620 1.68 µM | SK-MEL-5 2 µM | OVCAR-3 2.23 µM | M14 2.25 µM | DU-145 5.04 µM | MDA-MB-435 1.41 µM | NCI-H23 3.4 µM | HOP-62 2.67 µM | U-251 1.38 µM | Malme-3M 3.44 µM | SK-MEL-28 1.93 µM | NCI-H460 2.11 µM | 786-0 1.71 µM | IGROV-1 2.23 µM | SN12C 2.04 µM | PC-3 1.57 µM | CCRF-CEM 2.26 µM | HOP-92 4.49 µM | MOLT-4 3.15 µM | SF-268 2.63 µM | RXF 393 2.66 µM | ACHN 1.67 µM | HCC 2998 1.82 µM | BT-549 2.52 µM

CO[P@]1(=O)O[C@@H](c2ccccc2)[C@H](O)[C@@]1(O)c1ccccc1
inactive: HT-29 > 100 µM | SR > 100 µM | UACC-62 > 100 µM | SNB-75 > 100 µM | MCF7 > 100 µM | SF-295 > 100 µM | MDA-N > 100 µM | K562 > 100 µM | A549 > 100 µM | MDA-MB-231 > 100 µM | LOX IMVI > 100 µM | OVCAR-5 > 100 µM | UO-31 > 100 µM | SNB-19 > 100 µM | UACC-257 > 100 µM | HCT-116 > 100 µM | A498 > 100 µM | NCI/ADR-RES > 100 µM | OVCAR-8 > 100 µM | HL-60 > 100 µM | NCI-H226 > 100 µM | OVCAR-4 > 100 µM | EKVX > 100 µM | TK-10 > 100 µM | T47D > 100 µM | KM12 > 100 µM | CAKI-1 > 100 µM | SW-620 > 100 µM | SK-MEL-5 > 100 µM | SK-OV-3 > 100 µM | OVCAR-3 > 100 µM | M14 > 100 µM | DU-145 > 100 µM | MDA-MB-435 > 100 µM | NCI-H23 > 100 µM | U-251 > 100 µM | Malme-3M > 100 µM | SK-MEL-28 > 100 µM | NCI-H460 > 100 µM | 786-0 > 100 µM | IGROV-1 > 100 µM | SN12C > 100 µM | PC-3 > 100 µM | CCRF-CEM > 100 µM | COLO 205 > 100 µM | HOP-92 > 100 µM | NCI-H522 > 100 µM | MOLT-4 > 100 µM | SK-MEL-2 > 100 µM | RXF 393 > 100 µM | ACHN > 100 µM | SF-539 > 100 µM | BT-549 > 100 µM
> 100 µM: HCT-15
